Data published in patent US20100063065A1 (Inpharmatica Limited, priority 2005, published 2010).

The compounds below were run against T1, PPARδ (Homo sapiens, UniProt Q03181) (assay: Transactivation assay (PPARδ GAL4 assay) in transiently transfected HEK293 cells). Conditions: luciferase reporter, Table 1.
T1 construct: fused to amino acids 147-441 of PPARδ downstream of CMV promoter; expressed in transfected cells; host or cells: HEK293 cells, transiently transfected with pFACMV-PPARδ using Fugene
T1 sequence (Q03181 147-441): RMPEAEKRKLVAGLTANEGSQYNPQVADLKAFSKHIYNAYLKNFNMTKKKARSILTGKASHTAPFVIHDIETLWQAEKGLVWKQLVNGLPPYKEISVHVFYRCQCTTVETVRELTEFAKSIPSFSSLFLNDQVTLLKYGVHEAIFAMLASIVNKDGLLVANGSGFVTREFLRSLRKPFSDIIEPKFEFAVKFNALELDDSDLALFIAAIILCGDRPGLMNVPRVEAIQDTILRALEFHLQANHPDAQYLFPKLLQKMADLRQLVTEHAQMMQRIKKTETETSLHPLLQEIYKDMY
Type: cell-based
Protocol: Compounds were screened for their functional potency in transiently transfected HEK293 cells for their ability to activate PPAR subtypes. Cells were cultured in DMEM (Invitrogen) supplemented with 10% foetal calf serum, glutamine, penicillin and streptomycin and plated at 10 000 cells/well of a 96-well solid white plate and incubated at 37° C./5% CO2 for 24 hours. Media was removed and the cells washed with PBS. Cells were then transiently transfected using Fugene (Roche) with 50 ng pFACMV-PPARδ (plasmid encoding amino acids 1-147 of the GAL4 DNA binding domain, fused to amino acids 147-441 of PPARδ downstream of CMV promoter) and 250 ng pFR-Luc (reporter plasmid containing 5×GAL4 response elements upstream of a luciferase gene), using a ratio of 3:1 Fugene:DNA. 100 μl of this transfection mixture in DMEM (without foetal calf serum) was added to each well, and the incubation continued for a further 24 hours. The cells are then again washed with PBS prior to the addition of 100 μl reduced serum medium (OptiMEM; Invitrogen). Compounds were added (10 μl in 2% DMSO in OptiMEM) to achieve final concentrations between 0-30 μM. The cells were then returned to the incubator for a further 24 hours. 100 μl of luciferase reagent (Bright Glo, Promega) was added directly to each well, and the luminescence determined using a suitable luminometer.
To measure the selectivity of compounds, their ability to transactivate GAL4 fusions of PPARα LBD and PPARγ LBD was determined. The activity of compounds was expressed as a percentage relative to control compounds: PPARγ rosiglitazone (BRL 49653), PPARδ GW501516 (11) or PPARα KCL1999000269 (12). EC50 values were calculated by fitting of the data to a sigmoidal dose response curve.

| SMILES | EC50 [nM] |
| --- | --- |
| CCc1cc(C(=O)c2ccc(F)cc2)c(NC(=O)CC2(CC(=O)O)CCCC2)s1 [Example 21, (1-{[5-Ethyl-3-(4-fluoro-benzoyl)-thiophen-2-ylcarbamoyl]-methyl}-cyclopentyl)-acetic acid] | 1000 to 30000 |
| CCc1cc(C(=O)c2ccc(Cl)cc2)c(NC(=O)CC2(CC(=O)O)CCCC2)s1 [Example 26, (1-{[3-(4-Chloro-benzoyl)-5-ethyl-thiophen-2-ylcarbamoyl]-methyl}-cyclopentyl)-acetic acid] | 1000 to 30000 |
| CCc1cc(C(=O)c2ccc(OC(F)(F)F)cc2)c(NC(=O)CNC2(C(=O)O)CC2)s1 [Example 82, 1-({[5-Ethyl-3-(4-trifluoromethoxy-benzoyl)-thiophen-2-ylcarbamoyl]-methyl}-amino)-cyclopropanecarboxylic acid] | 1000 to 30000 |

Second part, the compound after the results:

| EC50 [nM] | SMILES |
| --- | --- |
| 100 to 1000 | CCc1cc(C(=O)c2ccc(Cl)cc2)c(NC(=O)CSCC(=O)O)s1 [Example 23, {[3-(4-Chloro-benzoyl)-5-ethyl-thiophen-2-ylcarbamoyl]-methylsulfanyl}-acetic acid] |
| 1000 to 30000 | CCc1cc(C(=O)c2ccc(-c3cncnc3)cc2)c(NC(=O)CSCC(=O)O)s1 [Example 41, {[5-Ethyl-3-(4-pyrimidin-5-yl-benzoyl)-thiophen-2-ylcarbamoyl]-methylsulfanyl}-acetic acid] |
| < 100 | CCc1cc(C(=O)c2ccc(Cl)c(Cl)c2)c(NC(=O)CSCC(=O)O)s1 [Example 28, {[3-(3,4-Dichloro-benzoyl)-5-ethyl-thiophen-2-ylcarbamoyl]-methylsulfanyl}-acetic acid] |
| 1000 to 30000 | CCc1cc(C(=O)c2cccc3ccccc23)c(NC(=O)CSCC(=O)O)s1 [Example 46, {[5-Ethyl-3-(naphthalene-1-carbonyl)-thiophen-2-ylcarbamoyl]-methylsulfanyl}-acetic acid] |

Same assay, conditions: luciferase reporter, Table 2

| SMILES | EC50 [nM] |
| --- | --- |
| CCc1cc(C(=O)c2ccc(OC(F)(F)F)cc2)c(NC(=O)CN2CCC[C@]2(C)C(=O)O)s1 [Example 172, (R)-1-{[5-Ethyl-3-(4-trifluoromethoxy-benzoyl)-thiophen-2-ylcarbamoyl]-methyl}-2-methyl-pyrrolidine-2-carboxylic acid] | 100 to 1000 |
| CCc1cc(C(=O)c2cc3cc(OC(F)(F)F)ccc3n2C)c(NC(=O)CCC(C)(C)C(=O)O)s1 [Example 152, 4-[5-Ethyl-3-(1-methyl-5-trifluoromethoxy-H-indole-2-carbonyl)-thiophen-2-ylcarbamoyl]-2,2-dimethyl-butyric acid] | < 100 |
| CCc1cc(C(=O)c2ccc(OC(F)(F)F)cc2)c(NC(=O)CN2CCC(C(=O)O)CC2)s1 [Example 163, 1-{[5-Ethyl-3-(4-trifluoromethoxy-benzoyl)-thiophen-2-ylcarbamoyl]-methyl}-piperidine-4-carboxylic acid] | 100 to 1000 |
| CCc1cc(C(=O)c2ccc(OC(F)(F)F)cc2)c(NC(=O)CN2[C@@H](C(=O)O)CC[C@@H]2c2ccccc2)s1 [Example 184, (2R,5R)-1-{[5-Ethyl-3-(4-trifluoromethoxy-benzoyl)-thiophen-2-ylcarbamoyl]-methyl}-5-phenyl-pyrrolidine-2-carboxylic acid] | < 100 |

More lines, now with the values ahead:

| EC50 [nM] | SMILES |
| --- | --- |
| 100 to 1000 | CCc1cc(C(=O)c2ccc(-c3ccccn3)cc2)c(NC(=O)CSCC(=O)O)s1 [Example 145, {[5-Ethyl-3-(4-pyridin-2-yl-benzoyl)-thiophen-2-ylcarbamoyl]-methylsulfanyl}-acetic acid] |
| 100 to 1000 | CCc1cc(C(=O)c2ccc(Cl)cc2)c(NC(=O)CSc2ccc(OC(C)(C)C(=O)O)cc2)s1 [Example 138, 2-(4-{[3-(4-Chloro-benzoyl)-5-ethyl-thiophen-2-ylcarbamoyl]-methylsulfanyl}-phenoxy)-2-methyl-propionic acid] |
| 1000 to 30000 | CCc1cc(C(=O)c2cc3ccccc3n2C)c(NC(=O)CSCC(=O)O)s1 [Example 149, {[5-Ethyl-3-(1-methyl-1H-indole-2-carbonyl)-thiophen-2-ylcarbamoyl]-methylsulfanyl}-acetic acid] |
